Test results: patent publication US10035971B2, “Method for treating algae” (STAMICARBON B.V., priority 2014, dated 2018)

Key:
[1] = in water; cited from earlier work
wet algae = assay: Algal cell lysis with ionic liquid and oil extraction / transesterification; format: cell-based; settings: for recovered oil (% of the total algal oil content): wet algae 5 g, water content 85%, cell lysis 80° C. 1 h, hexane added
Method: Cell lysis was performed at 100° C. for 1 h. Hexane was added to favor oil separation. After centrifugation, a three phase system was obtained: an upper hydrophobic layer, containing the oil; a lower phase (solid), due to the precipitated ionic liquid conjugate (ca. 60% of the starting material), and a middle phase, containing water/methanol+conjugate acid+the cell lysis hydrophilic products.
CO2 was added under pressure. Cell lysis was performed at 100° C. for 1 h. At the end of the experiment, hexane was added to favor oil separation. After centrifugation, a two phase system was obtained: an upper hydrophobic layer, containing the oil; a lower phase, containing water, the ionic liquid and the hydrophilic algae products.
The wet algae (5 gr, water content 85%) were added to tetramethylguanidinium hydrogen sulfate (15 gr). Cell lysis was performed at 80° C. for 1 h. At the end of the experiment, hexane was added to favor oil separation. The hydrophobic phase, after hexane evaporation, was analyzed by NMR and GC-MS.
The wet algae (5 g, water content 85%) and methanol (2.5 g) were added to tetramethylguanidinium hydrogensulfate. Cell lysis was performed at 80° C. for 1 h. At the end of the experiment, hexane (5 ml) was added to favor oil separation and the eventual precipitation of the conjugate acid. […] After hexane evaporation, the recovered products were analyzed by NMR and GC.
Cell lysis was performed at 80° C. for 1 h. At the end of the experiment, hexane (5 ml) was added to favor oil separation.
Cell lysis was performed at 80° C. for 1 h. At the end of the experiment, methanol (25 ml) and hexane (5 ml) was added to favor oil separation. […] After separation of the hydrophobic layer, the added inorganic salts and water were removed by centrifugation and distillation, and the recovered liquid was again used for algae extraction. After hexane evaporation, the recovered products were analyzed by NMR and GC.
The wet algae (5 g, water content 85%) were added to 1-ethyl-3-methylimidazolium ethyl sulfate (25 gr). Cell lysis was performed at 80° C. for 1 h. At the end of the experiment, hexane (5 ml) was added to favor oil separation. […] After separation of the hydrophobic layer, water was removed from the aqueous phase and the recovered liquid was again used for algae extraction. After hexane evaporation, the recovered products were analyzed by NMR and GC.
Cell lysis was performed at 80° C. for 1 h. At the end of the experiment, hexane (5 ml) was added to favor oil separation. […] After hexane evaporation, the recovered products were analyzed by NMR and GC.

Molecule	pKa water [1]	recovered oil (% of the total algal oil content) (wet algae)	Oil extraction (%) with respect the total algal oil content (wet algae; Example 9, procedure of Example 1, 100° C. (10 atm for TMG and DBU), IL/Algae/MeOH 5:1:1.5 (5:1 for [BMIM]Cl))
CN(C)C(=N)N(C)C [Tetramethylguanidine (TMG), 1,1,3,3-tetramethylguanidine]	15.2		
C1CN2CCN1CC2 [Dabco, triethylenediamine]	8.8		
1-ethyl-3-methylimidazolium ethyl sulfate [[EMIM] Ethyl Sulfate]		50-52%	
CC(=O)[O-].CCCCn1cc[n+](C)c1 [[BMIM] Acetate, 1-butyl-3-methylimidazolium acetate]		40%	
CN1CCCC1 [N-methylpyrrolidine]	10.5		
CCCC[n+]1ccn(C)c1.[Cl-] [[BMIM]Cl, 1-methyl-3-butylimidazolium chloride]		40-60%	40-60%
